# From PubChem BioAssay AID1259411 (Chemical Carcinogenesis Research Information System (CCRIS), 2018)
# Calls of active or inactive are those of the source. No rule for the calls is given here.
# System: rodent carcinogenicity bioassays, tumor incidence
# Assay: CCRIS carcinogenicity studies
# In short: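 NCI-built, expert-reviewed records of carcinogenicity and related test outcomes (mutagenicity, tumor promotion/inhibition) compiled from published and report sources, historical span 1985-2011, not updated.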
smiles,measurement,setting,value
O=CNc1nc(-c2ccc([N+](=O)[O-])o2)cs1,carcinogen call,"Species: DOG, Route: ORAL, Tumor Site: Type of Lesion: URINARY BLADDER, GALL BLADDER",active; positive
same,carcinogen call,"Species: MOUSE, Route: ORAL, Tumor Site: Type of Lesion: URINARY BLADDER",active; positive
same,carcinogen call,"Species: MOUSE, Strain/Sex: CD-1/FEMALE, Route: ORAL, Dose: 0, 0.1% IN DIET FOR 36 WK (STUDY DURATION: 81 WK), Tumor Site: Type of Lesion: BLADDER: TRANSITIONAL CELL CARCINOMA, SPINDLE CELL TUMOR, SQUAMOUS CELL CARCINOMA",active; positive
same,carcinogen call,"Species: MOUSE, Strain/Sex: CD-1/MALE, Route: ORAL, Dose: 0, 0.1% IN DIET FOR 40 WK (STUDY DURATION: 70 WK), Tumor Site: Type of Lesion: BLADDER: TRANSITIONAL CELL CARCINOMA, SPINDLE CELL TUMOR, SQUAMOUS CELL CARCINOMA",active; positive
same,carcinogen call,"Species: RAT, Route: ORAL, Tumor Site: Type of Lesion: KIDNEY, MAMMARY GLAND",active; positive
same,carcinogen call,"Species: RAT, Strain/Sex: F344/MALE, Route: ORAL, Dose: 0.001-0.2% IN DIET FOR 30 WK, Tumor Site: Type of Lesion: URINARY BLADDER: CARCINOMA",active; positive
same,carcinogen call,"Species: RAT, Strain/Sex: SPRAGUE-DAWLEY/FEMALE, Route: ORAL, Dose: 0, 0.188% IN DIET FOR 20 WK FOLLOWED BY CONTROL DIET FOR 20 WK (STUDY DURATION: 40 WK), Tumor Site: Type of Lesion: BLADDER: TRANSITIONAL CELL CARCINOMA",active; positive
same,carcinogen call,"Species: RAT, Strain/Sex: SPRAGUE-DAWLEY/FEMALE, Route: ORAL, Dose: 0.188% IN DIET FOR 20 WK THEN BASAL DIET FOR 20 WK, Tumor Site: Type of Lesion: URINARY BLADDER: TRANSITIONAL CELL CARCINOMA",active; positive
C/C=C/c1cc(OC)c(OC)cc1OC,carcinogen call,"Species: MOUSE, Strain/Sex: B6C3F1/MALE, Route: INTRAPERITONEAL, Dose: 0, 0.25, 0.5 UMOL/G BW ONCE (STUDY DURATION: 10-11 MONTHS), Dose: 0, 0.25, 0.5 UMOL/G BW ONCE (STUDY DURATION: 10-11 MONTHS), Tumor Site: Type of Lesion: LIVER: HEPATOMA",active; positive
same,carcinogen call,"Species: MOUSE, Strain/Sex: CD-1/FEMALE, Route: DERMAL, Dose: 0, 5 UMOL 1X/WK FOR 3 WK BEGINNING 24 HR POST FIRST TPA DOSE (2.5 UG IN 0.1 ML ACETONE), FOLLOWED BY 2.5 UG TPA IN 0.1 M",inactive; negative
Nc1ccc(Cl)cc1N,carcinogen call,"Species: MOUSE, Strain/Sex: B6C3F1/FEMALE, Route: ORAL, Dose: 0, 0.7, 1.4% TWA, IN DIET FOR 78 WK (STUDY DURATION: 96-97 WK), Dose: 0, 0.7, 1.4% TWA, IN DIET FOR 78 WK (STUDY DURATION: 96-97 WK), Tumor Site: Type of Lesion: LIVER: HEPATOCELLULAR CARCINOMA, HEPATOCELLULAR ADENOMA OR CARCINOMA",active; positive
same,carcinogen call,"Species: MOUSE, Strain/Sex: B6C3F1/MALE, Route: ORAL, Dose: 0, 0.7, 1.4% TWA, IN DIET FOR 78 WK (STUDY DURATION: 95-97 WK), Dose: 0, 0.7, 1.4% TWA, IN DIET FOR 78 WK (STUDY DURATION: 95-97 WK), Tumor Site: Type of Lesion: LIVER: HEPATOCELLULAR CARCINOMA, HEPATOCELLULAR ADENOMA OR CARCINOMA",active; positive
same,carcinogen call,"Species: RAT, Strain/Sex: F344/FEMALE, Route: ORAL, Dose: 0, 0.5, 1.0% IN DIET FOR 78 WK (STUDY DURATION: 106 WK), Dose: 0, 0.5, 1.0% IN DIET FOR 78 WK (STUDY DURATION: 106 WK), Tumor Site: Type of Lesion: URINARY BLADDER: PAPILLARY CARCINOMA OR TRANSITIONAL CELL CARCINOMA, PAPILLARY CARCINOMA OR TRANSITIONAL CELL CARCINOMA",active; positive
same,carcinogen call,"Species: RAT, Strain/Sex: F344/MALE, Route: ORAL, Dose: 0, 0.5, 1.0% IN DIET FOR 78 WK (STUDY DURATION: 105-106 WK), Dose: 0, 0.5, 1.0% IN DIET FOR 78 WK (STUDY DURATION: 105-106 WK), Tumor Site: Type of Lesion: URINARY BLADDER: TRANSITIONAL CELL CARCINOMA, PAPILLOMA (NOS) OR TRANSITIONAL CELL PAPILLOMA OR TRANSITIONAL CELL CARCIN",active; positive
CCCCCN(N=O)C(N)=O,carcinogen call,"Species: RAT, Strain/Sex: F344/FEMALE, Route: GAVAGE, Dose: 0, 16 MG/ML (TOTAL DOSE 0; 2 MMOL) IN 2 ML ETHYL ACETATE AND CORN OIL (1:2) 2/WK FOR 50 WK (STUDY DURATION: LIFETIME), Dose: 0, 16 MG/ML (TOTAL DOSE 0; 2 MMOL) IN 2 ML ETHYL ACETATE AND CORN OIL (1:2) 2/WK FOR 50 WK (STUDY DURATION: LIFETIME), Tumor Site: Type of Lesion: FORESTOMACH: SQUAMOUS CELL CARCINOMA, LUNG: TUMOR, UTERUS: TUMOR, Tumor Site: Type of Lesion: FORESTOMACH: SQUAMOUS CELL CARCINOMA, LUNG: TUMOR, UTERUS: TUMOR",active; positive
same,carcinogen call,"Species: RAT, Strain/Sex: F344/FEMALE, Route: GAVAGE, Dose: 0, 16 MG/ML IN 0.2 ML ETHYL ACETATE AND CORN OIL 2/WK FOR 50 WK (STUDY DURATION: LIFESPAN), Tumor Site: Type of Lesion: FORESTOMACH: TUMOR, LUNG: TUMOR, UTERUS: TUMOR, Tumor Site: Type of Lesion: FORESTOMACH: TUMOR, LUNG: TUMOR, UTERUS: TUMOR",active; positive
same,carcinogen call,"Species: RAT, Strain/Sex: F344/MALE, Route: GAVAGE, Dose: 0, 16 MG/ML (TOTAL DOSE 0; 2 MMOL) IN 2 ML ETHYL ACETATE AND CORN OIL (1:2) 2/WK FOR 50 WK (STUDY DURATION: LIFETIME), Dose: 0, 16 MG/ML (TOTAL DOSE 0; 2 MMOL) IN 2 ML ETHYL ACETATE AND CORN OIL (1:2) 2/WK FOR 50 WK (STUDY DURATION: LIFETIME), Tumor Site: Type of Lesion: FORESTOMACH: SQUAMOUS CELL CARCINOMA, LUNG: TUMOR, BODY CAVITY: MESOTHELIOMA, Tumor Site: Type of Lesion: FORESTOMACH: SQUAMOUS CELL CARCINOMA, LUNG: TUMOR, BODY CAVITY: MESOTHELIOMA",active; positive
same,carcinogen call,"Species: RAT, Strain/Sex: F344/MALE, Route: GAVAGE, Dose: 0, 16 MG/ML IN 0.2 ML ETHYL ACETATE AND CORN OIL 2/WK FOR 50 WK (STUDY DURATION: LIFESPAN), Tumor Site: Type of Lesion: FORESTOMACH: TUMOR, LUNG: TUMOR: PERITONEUM: MESOTHELIOMA, SKIN: TUMOR, Tumor Site: Type of Lesion: FORESTOMACH: TUMOR, LUNG: TUMOR: PERITONEUM: MESOTHELIOMA, SKIN: TUMOR",active; positive
N#[N+]c1ccc(O)cc1,carcinogen call,"Species: MOUSE, Strain/Sex: SWISS/FEMALE, Route: SUBCUTANEOUS, Dose: 0, 2 UG 1/WK FOR 36 WK (STUDY DURATION: 120 WK), Tumor Site: Type of Lesion: SUBCUTANEOUS TISSUE: TUMOR",active; positive
same,carcinogen call,"Species: MOUSE, Strain/Sex: SWISS/FEMALE, Route: SUBCUTANEOUS, Dose: 0, 10 UG 1/WK FOR 2 WK (STUDY DURATION: 130 WK)",inactive; negative
same,carcinogen call,"Species: MOUSE, Strain/Sex: SWISS/MALE, Route: SUBCUTANEOUS, Dose: 0, 2 UG 1/WK FOR 36 WK (STUDY DURATION: 110 WK), Tumor Site: Type of Lesion: SUBCUTANEOUS TISSUE: TUMOR",active; positive
same,carcinogen call,"Species: MOUSE, Strain/Sex: SWISS/MALE, Route: SUBCUTANEOUS, Dose: 0, 10 UG 1/WK FOR 2 WK (STUDY DURATION: 130 WK)",inactive; negative
Cc1ccc([N+](=O)[O-])cc1N,carcinogen call,"Species: MOUSE, Strain/Sex: B6C3F1/FEMALE, Route: ORAL, Dose: 0, 0.12, 0.23% OF DIET, TWA, Dose: 0, 0.12, 0.23% OF DIET, TWA, Tumor Site: Type of Lesion: LIVER: HEPATOCELLULAR CARCINOMA, BLOOD VESSELS: HEMANGIOSARCOMA",active; positive
same,carcinogen call,"Species: MOUSE, Strain/Sex: B6C3F1/MALE, Route: ORAL, Dose: 0, 0.12, 0.23% OF DIET, TWA, Dose: 0, 0.12, 0.23% OF DIET, TWA, Tumor Site: Type of Lesion: LIVER: HEPATOCELLULAR CARCINOMA, BLOOD VESSELS: HEMANGIOSARCOMA OR HEMANGIOMA",active; positive
same,carcinogen call,"Species: RAT, Strain/Sex: F344/FEMALE, Route: ORAL, Dose: 0, 0.005, 0.01% OF DIET, TWA, Dose: 0, 0.005, 0.01% OF DIET, TWA",inactive; negative
same,carcinogen call,"Species: RAT, Strain/Sex: F344/MALE, Route: ORAL, Dose: 0, 0.005, 0.01% OF DIET, TWA, Dose: 0, 0.005, 0.01% OF DIET, TWA",inactive; negative
CC1CN(N=O)C(=O)O1 (centres undefined),carcinogen call,"Species: HAMSTER, Strain/Sex: SYRIAN/FEMALE, Route: GAVAGE, Dose: 0, 14 MG/ML ((0.2 ML OF A SOLUTION IN ETHYL ACETATE/CORN OIL (1:2)) 1/WK FOR 28 WK (STUDY DURATION: LIFE SPAN), Tumor Site: Type of Lesion: FORESTOMACH: SQUAMOUS CELL CARCINOMA OR PAPILLOMA",active; positive
CN(C)/C=N/c1nnc(/C=C/c2ccc([N+](=O)[O-])o2)o1,carcinogen call,"Species: RAT, Route: ORAL, Tumor Site: Type of Lesion: MAMMARY GLAND, INTESTINES",active; positive
CN(C#N)N=O,carcinogen call,"Species: RAT, Strain/Sex: SPRAGUE-DAWLEY/FEMALE, Route: ORAL, Dose: 0, 6.9 MG/KG IN 25 ML DRINKING WATER DAILY (STUDY DURATION: >11 MO), Tumor Site: Type of Lesion: FORESTOMACH: SQUAMOUS CELL CARCINOMA, ESOPHAGUS: SQUAMOUS CELL PAPILLOMA OR SQUAMOUS CELL CARCINOMA",active; positive
